Patent US8299048B2, “Hexahydrocyclopentyl[f]indazole sulfonamides and derivatives thereof as selective glucocorticoid receptor modulators” (Merck Sharp & Dohme Corp., priority 2008, dated 2012)
pKi: −log10 of the molar value.

molecular target: T1, glucocorticoid receptor (Homo sapiens, UniProt P04150); assay: Ligand binding assay (GR BIND)
T1 construct: endogenous in cells
T1 sequence (P04150 1-777): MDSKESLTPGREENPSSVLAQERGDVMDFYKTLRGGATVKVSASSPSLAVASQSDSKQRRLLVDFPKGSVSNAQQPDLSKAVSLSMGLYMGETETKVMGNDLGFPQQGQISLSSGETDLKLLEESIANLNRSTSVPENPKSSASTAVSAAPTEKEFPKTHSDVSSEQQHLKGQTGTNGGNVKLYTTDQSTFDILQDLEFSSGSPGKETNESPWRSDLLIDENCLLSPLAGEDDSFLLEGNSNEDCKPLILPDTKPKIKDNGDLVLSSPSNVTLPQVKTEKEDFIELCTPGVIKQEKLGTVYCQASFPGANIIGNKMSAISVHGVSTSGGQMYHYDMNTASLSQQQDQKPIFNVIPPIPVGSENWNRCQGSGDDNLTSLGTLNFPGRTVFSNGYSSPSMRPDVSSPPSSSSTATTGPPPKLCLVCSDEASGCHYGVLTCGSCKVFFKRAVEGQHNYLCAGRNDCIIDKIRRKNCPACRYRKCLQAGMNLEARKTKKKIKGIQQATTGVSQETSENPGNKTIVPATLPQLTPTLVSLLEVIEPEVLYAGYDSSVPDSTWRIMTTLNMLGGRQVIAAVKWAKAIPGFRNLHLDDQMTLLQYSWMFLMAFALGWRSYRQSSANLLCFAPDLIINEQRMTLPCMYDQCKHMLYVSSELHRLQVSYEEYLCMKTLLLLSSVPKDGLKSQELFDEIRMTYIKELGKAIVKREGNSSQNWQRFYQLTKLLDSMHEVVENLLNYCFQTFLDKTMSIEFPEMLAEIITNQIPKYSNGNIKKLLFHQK
In short: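 Displacement of tritiated dexamethasone (6 nM trace solution) from receptor in cell supernatant was measured after overnight incubation at 4 °C in molybdate-containing TEGM, pH 7.2, 2% ethanol. Hydroxylapatite pulled down the receptor–ligand complex for filter washing and scintillation counting, with dexamethasone as reference.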

Row | SMILES | pKi
1 | C[C@]12Cc3cnn(-c4ccc(F)cc4)c3C=C1CC[C@@H]2CN(CC#N)S(=O)(=O)c1ccc(F)cc1 [Example 46, N-(cyanomethyl)-4-fluoro-N-{[(4αR,5S)-1-(4-fluorophenyl)-4α-methyl-1,4,4α,5,6,7-hexahydrocyclopenta[f]indazol-5-yl]methyl}benzenesulfonamide] | 9.15
2 | Cn1cnc(S(=O)(=O)N(CC#N)C[C@H]2CCC3=Cc4c(cnn4-c4ccc(F)cc4)C[C@@]32C)c1 [Example 37, N-(cyanomethyl)-N-{[(4αR,5S)-1-(4-fluorophenyl}-4α-methyl-1,4,4α,5,6,7-hexahydrocyclopenta[f]indazol-5-yl]methyl}-1-methyl-1H-imidazole-4-sulfonamide] | 7.97
3 | Cc1oncc1S(=O)(=O)N(CCO)C[C@H]1CCC2=Cc3c(cnn3-c3ccc(F)cc3)C[C@@]21C [Example 56, N-{[(4αR,5S)-1-(4-fluorophenyl)-4α-methyl-1,4,4α,5,6,7-hexahydrocyclopenta[f]indazol-5-yl]methyl}-N-(2-hydroxyethyl)-5-methylisoxazole-4-sulfonamide] | 8.34
4 | C[C@]12Cc3cnn(-c4ccc(F)cc4)c3C=C1CC[C@@H]2CN(CC1(O)CC1)S(=O)(=O)c1ccccc1F [Example 200, 2-fluoro-N-{[(4αR,5S)-1-(4-fluorophenyl)-4α-methyl-1,4,4α,5,6,7-hexahydrocyclopenta[f]indazol-5-yl]methyl}-N-[(1-hydroxycyclopropyl)methyl]benzenesulfonamide] | 8.74
5 | Cn1cc(S(=O)(=O)N(CC2CCCO2)C[C@H]2CCC3=Cc4c(cnn4-c4ccc(F)cc4)C[C@@]32C)c(C(F)(F)F)n1 (stereo partly drawn) [Example 175, N-{[(4αR,5S)-1-(4-fluorophenyl)-4α-methyl-1,4,4α,5,6,7-hexahydrocyclopenta[f]indazol-5-yl]methyl}-1-methyl-N-(tetrahydrofuran-2-ylmethyl)-3-(trifluoromethyl)-1H-pyrazole-4-sulfonamide] | 9.00

Other lines, results leading:

Row | pKi | SMILES
6 | 8.80 | CNC(=O)Nc1ccc(S(=O)(=O)N(CC2CC2)C[C@H]2CCC3=Cc4c(cnn4-c4ccc(F)cc4)C[C@@]32C)c(Cl)c1 [Example 14, 2-chloro-N-(cyclopropylmethyl)-N-{[(4αR,5S)-1-(4-fluorophenyl)-4α-methyl-1,4,4α,5,6,7-hexahydrocyclopenta[f]indazol-5-yl]methyl}-4-{[(methylamino)carbonyl]amino}-benzenesulfonamide]
7 | 9.15 | C[C@]12Cc3cnn(-c4ccc(F)cc4)c3C=C1CC[C@@H]2CN(CC#N)S(=O)(=O)c1cc(F)c(F)cc1F [Example 47, N-(cyanomethyl)-2,4,5-trifluoro-N-{[(4αR,5S)-1-(4-fluorophenyl)-4α-methyl-1,4,4α,5,6,7-hexahydrocyclopenta[f]indazol-5-yl]methyl}benzenesulfonamide]
8 | 8.82 | C[C@]12Cc3cnn(-c4ccc(F)cc4)c3C=C1CC[C@@H]2CN(CCc1ccccc1F)S(=O)(=O)Cc1ccccc1C(N)=O [Example 190, 2-{[([2-(2-fluorophenyl)ethyl]{[(4αR,5S)-1-(4-fluorophenyl)-4α-methyl-1,4,4α,5,6,7-hexahydrocyclopenta[f]indazol-5-yl]methyl}amino)sulfonyl]methyl}benzamide]
9 | 8.92 | CCN(C[C@H]1CCC2=Cc3c(cnn3-c3ccc(F)cc3)C[C@@]21C)S(=O)(=O)CC(F)(F)F [Example 179, N-ethyl-2,2,2-trifluoro-N-{[(4αR,5S)-1-(4-fluorophenyl)-4α-methyl-1,4,4α,5,6,7-hexahydrocyclopenta[f]indazol-5-yl]methyl}ethanesulfonamide]
10 | 9.10 | COC(=O)c1ccccc1S(=O)(=O)N(CC1CC1)C[C@H]1CCC2=Cc3c(cnn3-c3ccc(F)cc3)C[C@@]21C [Example 18, methyl 2-[((cyclopropylmethyl){[(4αR,5S)-1-(4-fluorophenyl)-4α-methyl-1,4,4α,5,6,7-hexahydrocyclopenta[f]indazol-5 yl]methyl}amino)sulfonyl]benzoate]
